The supplement of paper PMC7600603

Legend:
DLD1 NRF2-WT [1] = assay: TC50 cytotoxicity; higher = less toxic; settings: 72 h; CellTox Green cytotoxicity
Outline: (§1)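 TC50 and drug sensitivity score, a normalised area under the curve, were derived by logistic dose-response fits of cytotoxicity. The cells were an isogenic DLD1 colorectal cancer pair, NRF2 wild-type or CRISPR-edited, kept in DMEM with 10% FBS. Compounds were tested in 384-well plates at 5 concentrations across a 10,000-fold range for 72 h. Readings with CellTox Green on a Pherastar FS reader were normalised to vehicle wells and 100-μM positive-control wells.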

DLD1 NRF2-GOF [2] = assay: TC50 cytotoxicity; higher = less toxic; settings: 72 h; CellTox Green cytotoxicity
Outline: as §1

DLD1 NRF2-WT [3] = settings: 72 h; CellTiter-Glo viability
Outline: (§2)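 In 384-well plates, library compounds were applied at 5 concentrations spanning a 10,000-fold range to isogenic DLD1 colorectal cancer cells, NRF2 wild-type or CRISPR gain-of-function, maintained in DMEM with 10% FBS. A Pherastar FS reader recorded CellTiter-Glo signal at 72 h, with normalisation to vehicle wells and 100-μM positive-control wells. Curves were fitted with a four-parameter logistic model. EC50 and drug sensitivity score, a normalised area under the curve, came from those curves.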

DLD1 NRF2-WT [4] = assay: drug sensitivity score (DSS) cytotoxicity (DSS score); higher = more toxic; extreme values may be limits of the assay; settings: 72 h; CellTox Green cytotoxicity
Outline: as §1

DLD1 NRF2-GOF [5] = assay: as above; settings: 72 h; CellTox Green cytotoxicity
Outline: as §1

DLD1 NRF2-WT [6] = assay: drug sensitivity score (DSS) viability (DSS score); higher = more sensitive; extreme values may be limits of the assay; settings: 72 h; CellTiter-Glo viability
Outline: as §2

`O=C(Nc1cc(Oc2cc(F)c(NC(=O)C3(C(=O)Nc4ccc(F)cc4)CC3)cc2F)ccn1)C1CC1` [Altiratinib] was tested, and the TC50 cytotoxicity (DLD1 NRF2-WT [1]) was > 10 µM, the TC50 cytotoxicity (DLD1 NRF2-GOF [2]) was > 10 µM and the EC50 viability (DLD1 NRF2-WT [3]) was 3.43 µM. For the same molecule, the drug sensitivity score (DLD1 NRF2-WT [4]) was 0.6, the drug sensitivity score (DLD1 NRF2-GOF [5]) was 0.2 and the drug sensitivity score (DLD1 NRF2-WT [6]) was 5.1.

Molecule `O=C(O)C(=O)O.[NH-][C@@H]1CCCC[C@H]1[NH-].[Pt+2]` [Oxaliplatin] has an EC50 viability (DLD1 NRF2-WT [3]) of 25.3 µM and a drug sensitivity score (DLD1 NRF2-WT [6]) of 3.

With `C[C@@H]1CN(CC(=O)Nc2ccc3c(c2)Cc2cccc(-c4cc(=O)cc(N5CCOCC5)o4)c2S3)C[C@H](C)O1` the TC50 cytotoxicity (DLD1 NRF2-WT [1]) was > 25 µM, the TC50 cytotoxicity (DLD1 NRF2-GOF [2]) was > 25 µM and the EC50 viability (DLD1 NRF2-WT [3]) was > 25 µM. The drug sensitivity score (DLD1 NRF2-WT [4]) was 0, the drug sensitivity score (DLD1 NRF2-GOF [5]) was 0 and the drug sensitivity score (DLD1 NRF2-WT [6]) was 0.

In the case of `CC1(C)CCC(c2ccc(Cl)cc2)=C(CN2CCN(c3ccc(C(=O)NS(=O)(=O)c4ccc(N[C@H](CCN5CCOCC5)CSc5ccccc5)c(S(=O)(=O)C(F)(F)F)c4)cc3)CC2)C1` [Navitoclax], the TC50 cytotoxicity (DLD1 NRF2-WT [1]) is reported as 1.55 µM, the TC50 cytotoxicity (DLD1 NRF2-GOF [2]) is reported as 1.89 µM and the EC50 viability (DLD1 NRF2-WT [3]) is reported as 3.95 µM. The drug sensitivity score (DLD1 NRF2-WT [4]) was 4, the drug sensitivity score (DLD1 NRF2-GOF [5]) was 2.1 and the drug sensitivity score (DLD1 NRF2-WT [6]) was 2.1.

In the case of `CC[C@@H]1C(=O)N(C)c2cnc(Nc3ccc(C(=O)NC4CCN(C)CC4)cc3OC)nc2N1C1CCCC1` [BI 2536], the TC50 cytotoxicity (DLD1 NRF2-WT [1]) is reported as 0.188 µM, the EC50 viability (DLD1 NRF2-WT [3]) is reported as 0.0052 µM and the drug sensitivity score (DLD1 NRF2-WT [4]) is reported as 3.1. It also gave a drug sensitivity score (DLD1 NRF2-GOF [5]) of 2.3 and a drug sensitivity score (DLD1 NRF2-WT [6]) of 21.8.

With `N#Cc1ccc(COC[C@H]2O[C@@H](n3c(NCc4ccc(Cl)c(Cl)c4)nc4c(N)ncnc43)[C@H](O)[C@@H]2O)cc1` the TC50 cytotoxicity (DLD1 NRF2-WT [1]) was > 10 µM, the TC50 cytotoxicity (DLD1 NRF2-GOF [2]) was > 10 µM and the drug sensitivity score (DLD1 NRF2-WT [4]) was 0. It also gave a drug sensitivity score (DLD1 NRF2-GOF [5]) of 0 and a drug sensitivity score (DLD1 NRF2-WT [6]) of 3.2.

In the case of `Cn1c(Nc2ccc(C(F)(F)F)cc2)nc2cc(Oc3ccnc(-c4ncc(C(F)(F)F)[nH]4)c3)ccc21` [NVP-RAF265], the EC50 viability (DLD1 NRF2-WT [3]) is reported as 0.191 µM and the drug sensitivity score (DLD1 NRF2-WT [6]) is reported as 3.2.

In the case of `CCCOc1ccn2c(C(C)=O)cc(-c3ccccc3S(C)(=O)=O)c2c1` [GSK2801], the TC50 cytotoxicity (DLD1 NRF2-WT [1]) is reported as > 10 µM, the TC50 cytotoxicity (DLD1 NRF2-GOF [2]) is reported as > 10 µM and the drug sensitivity score (DLD1 NRF2-WT [4]) is reported as 0. For the same molecule, the drug sensitivity score (DLD1 NRF2-GOF [5]) was 0.

Molecule `Cc1cc(OCc2nnc(SC3CCCC3)n2-c2cccnc2)ccc1-c1ccc(S(C)(=O)=O)cc1` [NMS-873] has an EC50 viability (DLD1 NRF2-WT [3]) of 0.273 µM and a drug sensitivity score (DLD1 NRF2-WT [6]) of 5.5.

With `C[C@]12CC[C@@H]3c4ccc(O)cc4C[C@@H](CCCCCCCCC[S+]([O-])CCCC(F)(F)C(F)(F)F)[C@H]3[C@@H]1CC[C@@H]2O` (some centres not stated) [Fulvestrant] the TC50 cytotoxicity (DLD1 NRF2-WT [1]) was > 1 µM, the TC50 cytotoxicity (DLD1 NRF2-GOF [2]) was > 1 µM and the drug sensitivity score (DLD1 NRF2-WT [4]) was 0. The drug sensitivity score (DLD1 NRF2-GOF [5]) was 0.

For `CNS(=O)(=O)Nc1nccc(Cc2c(C)c3ccc(Oc4ncccn4)cc3oc2=O)c1F`, the TC50 cytotoxicity (DLD1 NRF2-WT [1]) was > 1 µM, the TC50 cytotoxicity (DLD1 NRF2-GOF [2]) was > 1 µM and the drug sensitivity score (DLD1 NRF2-WT [4]) was 0. The drug sensitivity score (DLD1 NRF2-GOF [5]) was 0.

In the case of `CC(C)c1cc(C(=O)N2Cc3ccc(CN4CCN(C)CC4)cc3C2)c(O)cc1O` [Onalespib], the TC50 cytotoxicity (DLD1 NRF2-WT [1]) is reported as > 2.5 µM, the TC50 cytotoxicity (DLD1 NRF2-GOF [2]) is reported as > 2.5 µM and the drug sensitivity score (DLD1 NRF2-WT [4]) is reported as 0. For the same molecule, the drug sensitivity score (DLD1 NRF2-GOF [5]) was 0.

`CO[C@H]1C[C@@H]2CC[C@@H](C)[C@@](O)(O2)C(=O)C(=O)N2CCCC[C@H]2C(=O)O[C@H]([C@H](C)C[C@@H]2CC[C@@H](O)[C@H](OC)C2)CC(=O)[C@H](C)/C=C(\C)[C@@H](O)[C@@H](OC)C(=O)[C@H](C)C[C@H](C)/C=C/C=C/C=C/1C` [Sirolimus] showed a drug sensitivity score (DLD1 NRF2-WT [6]) of 3.1.

`CNC(=O)[C@@H](NC(=O)[C@H](CC(C)C)[C@H](O)C(=O)NO)C(C)(C)C` [Marimastat] was tested, and the TC50 cytotoxicity (DLD1 NRF2-WT [1]) was > 10 µM, the TC50 cytotoxicity (DLD1 NRF2-GOF [2]) was > 10 µM and the drug sensitivity score (DLD1 NRF2-WT [4]) was 0. For the same molecule, the drug sensitivity score (DLD1 NRF2-GOF [5]) was 0.

In the case of `Cn1cc(CNCC2CCN(c3ncc(C(=O)NO)cn3)CC2)c2ccccc21` [Quisinostat], the TC50 cytotoxicity (DLD1 NRF2-WT [1]) is reported as 0.135 µM, the TC50 cytotoxicity (DLD1 NRF2-GOF [2]) is reported as > 1 µM and the drug sensitivity score (DLD1 NRF2-WT [4]) is reported as 5.1. For the same molecule, the drug sensitivity score (DLD1 NRF2-GOF [5]) was 0.

`O=C(/C=C\n1cnc(-c2cc(C(F)(F)F)cc(C(F)(F)F)c2)n1)NNc1ccccn1` [Verdinexor] was tested, and the TC50 cytotoxicity (DLD1 NRF2-WT [1]) was > 1 µM, the TC50 cytotoxicity (DLD1 NRF2-GOF [2]) was > 1 µM and the drug sensitivity score (DLD1 NRF2-WT [4]) was 0. The drug sensitivity score (DLD1 NRF2-GOF [5]) was 0.

Molecule `CC(C)n1cnc2c(NCCc3ccc(O)cc3)nc(-c3csc4ccccc34)nc21` [StemRegenin 1] has an EC50 viability (DLD1 NRF2-WT [3]) of 0.855 µM and a drug sensitivity score (DLD1 NRF2-WT [6]) of 3.9.

For `C[C@]12CC[C@H](O)CC1=CC[C@@H]1[C@@H]2CC[C@]2(C)C(c3cccnc3)=CC[C@@H]12` [Abiraterone], the TC50 cytotoxicity (DLD1 NRF2-WT [1]) was > 5 µM, the TC50 cytotoxicity (DLD1 NRF2-GOF [2]) was > 5 µM and the drug sensitivity score (DLD1 NRF2-WT [4]) was 0. For the same molecule, the drug sensitivity score (DLD1 NRF2-GOF [5]) was 0.

For `CC(C)(C)c1cc(NC(=O)Nc2ccc(-c3cn4c(n3)sc3cc(OCCN5CCOCC5)ccc34)cc2)no1` [Quizartinib], the TC50 cytotoxicity (DLD1 NRF2-WT [1]) was > 1 µM, the TC50 cytotoxicity (DLD1 NRF2-GOF [2]) was > 1 µM and the drug sensitivity score (DLD1 NRF2-WT [4]) was 0. The drug sensitivity score (DLD1 NRF2-GOF [5]) was 0.

With `Cc1cc(-c2ncc(CC(=O)Nc3ccc(-c4cnccn4)cn3)cc2C)ccn1` [NVP-LGK974] the TC50 cytotoxicity (DLD1 NRF2-WT [1]) was > 10 µM, the TC50 cytotoxicity (DLD1 NRF2-GOF [2]) was > 10 µM and the drug sensitivity score (DLD1 NRF2-WT [4]) was 0. For the same molecule, the drug sensitivity score (DLD1 NRF2-GOF [5]) was 0.

`O=C(O)CCCCC(CCSCc1ccccc1)SCc1ccccc1` (configuration not stated) [CPI-613] was tested, and the TC50 cytotoxicity (DLD1 NRF2-WT [1]) was > 10 µM, the TC50 cytotoxicity (DLD1 NRF2-GOF [2]) was > 10 µM and the drug sensitivity score (DLD1 NRF2-WT [4]) was 0. For the same molecule, the drug sensitivity score (DLD1 NRF2-GOF [5]) was 0.

In the case of `C[C@H]1CNCCCN1S(=O)(=O)c1cccc2cncc(F)c12` [Ripasudil], the TC50 cytotoxicity (DLD1 NRF2-WT [1]) is reported as > 10 µM, the TC50 cytotoxicity (DLD1 NRF2-GOF [2]) is reported as > 10 µM and the drug sensitivity score (DLD1 NRF2-WT [4]) is reported as 0. It also gave a drug sensitivity score (DLD1 NRF2-GOF [5]) of 0.

`N#CC1(c2ccc(NC(=O)c3cccnc3NCc3ccncc3)cc2)CCCC1` [Apatinib] was tested, and the TC50 cytotoxicity (DLD1 NRF2-WT [1]) was > 10 µM, the TC50 cytotoxicity (DLD1 NRF2-GOF [2]) was > 10 µM and the drug sensitivity score (DLD1 NRF2-WT [4]) was 0. For the same molecule, the drug sensitivity score (DLD1 NRF2-GOF [5]) was 0.

In the case of `C[C@@H]1CN(Cc2ccc(F)cc2)[C@@H](C)CN1C(=O)c1cc2c(C(=O)C(=O)N(C)C)cn(C)c2cc1Cl` [Talmapimod], the TC50 cytotoxicity (DLD1 NRF2-WT [1]) is reported as > 10 µM, the TC50 cytotoxicity (DLD1 NRF2-GOF [2]) is reported as > 10 µM and the drug sensitivity score (DLD1 NRF2-WT [4]) is reported as 0. The drug sensitivity score (DLD1 NRF2-GOF [5]) was 0.

`CC(C)(O)CNc1nc(Nc2ccnc(C(F)(F)F)c2)nc(-c2cccc(C(F)(F)F)n2)n1` [Enasidenib] was tested, and the TC50 cytotoxicity (DLD1 NRF2-WT [1]) was > 10 µM, the TC50 cytotoxicity (DLD1 NRF2-GOF [2]) was > 10 µM and the drug sensitivity score (DLD1 NRF2-WT [4]) was 0. For the same molecule, the drug sensitivity score (DLD1 NRF2-GOF [5]) was 0.

`Cc1cc(C(C)Nc2ccccc2)c2nc(N3CCOCC3)cc(=O)n2c1` (configuration not stated) [TGX-221] was tested, and the TC50 cytotoxicity (DLD1 NRF2-WT [1]) was > 10 µM, the TC50 cytotoxicity (DLD1 NRF2-GOF [2]) was > 10 µM and the drug sensitivity score (DLD1 NRF2-WT [4]) was 0. It also gave a drug sensitivity score (DLD1 NRF2-GOF [5]) of 0.

For `CC#CC(=O)N1CC[C@@H](n2c(=O)n(-c3ccc(Oc4ccccc4)cc3)c3c(N)ncnc32)C1` [ONO-4059], the TC50 cytotoxicity (DLD1 NRF2-WT [1]) was > 1 µM, the TC50 cytotoxicity (DLD1 NRF2-GOF [2]) was > 1 µM and the drug sensitivity score (DLD1 NRF2-WT [4]) was 0. The drug sensitivity score (DLD1 NRF2-GOF [5]) was 0.

Work on `O=C(c1ccc(F)c(F)c1Nc1ccc(I)cc1F)N1CC(O)([C@@H]2CCCCN2)C1` [Cobimetinib] yielded an EC50 viability (DLD1 NRF2-WT [3]) of 0.207 µM and a drug sensitivity score (DLD1 NRF2-WT [6]) of 3.
